According to ChEMBL document CHEMBL3608254, “Discovery of novel triazolobenzazepinones as γ-secretase modulators with central Aβ42 lowering in rodents and rhesus monkeys” (Bioorg Med Chem Lett, 2015):
In brackets after ≈: the same amount, converted by molar mass. Each block holds one compound with its values, some of them ahead of it. Activity calls are given as the source filed them. The calls are words filed in the database; no cut-off is given here.

Legend:
[1] = target: Sodium-dependent serotonin transporter (Homo sapiens, UniProt P31645); test: Inhibition of SERT (unknown origin)
Mus musculus = test: Antialzheimer's disease activity in po dosed APP-YAC transgenic mouse assessed as reduction of amyloid beta-40/42 level in brain measured after 6 hrs; assay type: functional
Rattus norvegicus [2] = test: Antialzheimer's disease activity in po dosed Sprague-Dawley rat assessed as reduction of amyloid beta-40/42 level in brain measured after 6 hrs; assay type: functional
[3] = Inhibition of gamma-secretase-mediated cleavage of NotchdeltaE in human HeLa cells expressing NotchdeltaE assessed as intracellular release of Notch intracellular domain (NICD)/N-terminal luciferase by luminescent method; assay type: cell-based
Gamma-secretase [4] = test: Inhibition of gamma-secretase in human SH-SY5Y cells expressing beta-APP C-terminal fragment SPA4CT assessed as decrease of amyloid beta-40 level by electrochemiluminescent method; assay type: cell-based
Gamma-secretase [5] = test: Inhibition of gamma-secretase in human SH-SY5Y cells expressing beta-APP C-terminal fragment SPA4CT assessed as decrease of amyloid beta-42 level by electrochemiluminescent method; assay type: cell-based
[6] = target: T1, Voltage-gated inwardly rectifying potassium channel KCNH2 (Homo sapiens, UniProt Q12809)
T1 sequence (Q12809 whole entry): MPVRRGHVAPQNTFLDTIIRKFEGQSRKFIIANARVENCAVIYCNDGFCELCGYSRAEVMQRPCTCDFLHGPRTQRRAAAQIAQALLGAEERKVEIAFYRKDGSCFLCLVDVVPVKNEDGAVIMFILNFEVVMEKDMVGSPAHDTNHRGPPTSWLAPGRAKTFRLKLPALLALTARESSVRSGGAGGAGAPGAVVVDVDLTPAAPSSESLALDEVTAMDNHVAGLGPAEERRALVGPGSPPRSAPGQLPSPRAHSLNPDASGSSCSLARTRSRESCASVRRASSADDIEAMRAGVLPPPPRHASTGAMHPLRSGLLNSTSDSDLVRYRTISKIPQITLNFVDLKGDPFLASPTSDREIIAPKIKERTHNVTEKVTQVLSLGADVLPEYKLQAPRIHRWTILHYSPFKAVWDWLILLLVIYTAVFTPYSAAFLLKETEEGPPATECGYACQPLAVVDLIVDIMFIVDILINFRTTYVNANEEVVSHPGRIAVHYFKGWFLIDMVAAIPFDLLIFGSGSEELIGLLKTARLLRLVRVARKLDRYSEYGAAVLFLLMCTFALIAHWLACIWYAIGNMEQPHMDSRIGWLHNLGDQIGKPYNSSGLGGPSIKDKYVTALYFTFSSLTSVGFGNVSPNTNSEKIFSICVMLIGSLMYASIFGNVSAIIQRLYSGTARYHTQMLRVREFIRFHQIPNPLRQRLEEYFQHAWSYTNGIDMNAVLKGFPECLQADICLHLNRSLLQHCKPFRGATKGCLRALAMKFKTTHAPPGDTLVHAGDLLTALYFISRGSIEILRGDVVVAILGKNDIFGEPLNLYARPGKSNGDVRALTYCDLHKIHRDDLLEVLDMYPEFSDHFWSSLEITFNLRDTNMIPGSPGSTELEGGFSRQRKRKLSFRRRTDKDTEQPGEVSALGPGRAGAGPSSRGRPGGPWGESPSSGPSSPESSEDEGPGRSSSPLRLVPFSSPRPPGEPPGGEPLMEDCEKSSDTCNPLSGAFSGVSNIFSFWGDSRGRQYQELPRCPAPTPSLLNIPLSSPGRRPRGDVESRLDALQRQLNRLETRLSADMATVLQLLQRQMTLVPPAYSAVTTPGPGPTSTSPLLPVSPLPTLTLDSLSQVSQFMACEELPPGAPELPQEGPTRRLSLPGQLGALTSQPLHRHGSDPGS
Description: Binding affinity to human ERG expressed in HEK cells by MK-499 radioligand displacement assay

[7] = Half life in rat hepatocytes; assay type: ADME, cell-based, Hepatocyte
[8] = Half life in dog hepatocytes; assay type: ADME, cell-based, Canis lupus familiaris, Hepatocyte
[9] = Half life in rhesus monkey hepatocytes; assay type: ADME, cell-based, Macaca mulatta, Hepatocyte
[10] = Half life in human hepatocytes; assay type: ADME, cell-based, Hepatocyte
[11] = Apparent permeability of the compound in pig LLC-PK1 cells; assay type: ADME, cell-based, Sus scrofa
Rattus norvegicus [12] = test: Dose normalized AUC in Wistar-Han rat at 100 mg/kg, po; assay type: ADME, organism-based; conditions: in vivo
[13] = Plasma clearance in Sprague-Dawley rat at 1 mg/kg, iv and 2 mg/kg, po; assay type: ADME, organism-based
[14] = Volume of distribution at steady state in Sprague-Dawley rat at 1 mg/kg, iv and 2 mg/kg, po; assay type: ADME, organism-based; conditions: in vivo, read-out: Vdss
[15] = Half life in Sprague-Dawley rat at 1 mg/kg, iv; assay type: ADME, organism-based; conditions: in vivo
Rattus norvegicus [16] = test: Oral bioavailability in Sprague-Dawley rat at 2 mg/kg; assay type: ADME, organism-based; conditions: in vivo
Rattus norvegicus [17] = test: Dose normalized AUC (0 to 24 hrs) in Sprague-Dawley rat at 2 mg/kg, po; assay type: ADME, organism-based; conditions: in vivo
[18] = Plasma clearance in dog at 0.25 mg/kg, iv and 0.5 mg/kg, po; assay type: ADME, organism-based, Canis lupus familiaris
[19] = Volume of distribution at steady state in dog at 0.25 mg/kg, iv and 0.5 mg/kg, po; assay type: ADME, organism-based, Canis lupus familiaris; conditions: in vivo, read-out: Vdss
[20] = Half life in dog at 0.25 mg/kg, iv; assay type: ADME, organism-based, Canis lupus familiaris; conditions: in vivo
[21] = Oral bioavailability in dog at 0.5 mg/kg; assay type: ADME, organism-based, Canis lupus familiaris; conditions: in vivo
Canis familiaris = test: Dose normalized AUC (0 to 24 hrs) in dog at 0.5 mg/kg, po; assay type: ADME, organism-based, Canis lupus familiaris; conditions: in vivo
[22] = Volume of distribution at steady state in rhesus monkey at 0.25 mg/kg, iv and 0.5 mg/kg, po; assay type: ADME, organism-based, Macaca mulatta; conditions: in vivo, read-out: Vdss
[23] = Half life in rhesus monkey at 0.25 mg/kg, iv; assay type: ADME, organism-based, Macaca mulatta; conditions: in vivo
[24] = Oral bioavailability in rhesus monkey at 0.5 mg/kg; assay type: ADME, organism-based, Macaca mulatta; conditions: in vivo
Rhesus monkey [25] = test: Antialzheimer's disease activity in rhesus monkey cisterna-magna-ported model assessed as reduction of amyloid beta-42 level in CSF at 6 mg/kg bolus dose followed by 4 hrs infusion of 44 mg/kg, iv measured up to 20 hrs; assay type: functional, organism-based; conditions: Macaca mulatta
Rhesus monkey [26] = test: Antialzheimer's disease activity in rhesus monkey cisterna-magna-ported model assessed as reduction of amyloid beta-40 level in CSF at 6 mg/kg bolus dose followed by 4 hrs infusion of 44 mg/kg, iv measured up to 20 hrs; assay type: functional, organism-based; conditions: Macaca mulatta
Plasma = test: AUC in plasma of rhesus monkey cisterna-magna-ported model at 6 mg/kg bolus dose followed by 4 hrs infusion of 44 mg/kg, iv; assay type: ADME, organism-based, Macaca mulatta; conditions: in vivo
[27] = AUC in cerebrospinal fluid of rhesus monkey cisterna-magna-ported model at 6 mg/kg bolus dose followed by 4 hrs infusion of 44 mg/kg, iv; assay type: ADME, organism-based, Macaca mulatta
[28] = target: T1, Voltage-gated inwardly rectifying potassium channel KCNH2; test: Inhibition of human ERG expressed in HEK cells assessed as reduction in IKr current by patchXpress assay; assay type: cell-based, HEK293
Rattus norvegicus [29] = test: Antialzheimer's disease activity in Sprague-Dawley rat assessed as reduction of amyloid beta-42 level in brain at 100 mg/kg, po after 6 hrs relative to control; assay type: functional
[30] = Drug level in Sprague-Dawley rat brain at 100 mg/kg, po after 6 hrs; assay type: ADME, organism-based; conditions: read-out: Drug uptake
CYP3A4 [31] = target: T2, CYP3A4 (Homo sapiens, UniProt P08684); test: Inhibition of CYP3A4 (unknown origin) at 10 uM; assay type: ADME
T2 sequence (P08684 whole entry): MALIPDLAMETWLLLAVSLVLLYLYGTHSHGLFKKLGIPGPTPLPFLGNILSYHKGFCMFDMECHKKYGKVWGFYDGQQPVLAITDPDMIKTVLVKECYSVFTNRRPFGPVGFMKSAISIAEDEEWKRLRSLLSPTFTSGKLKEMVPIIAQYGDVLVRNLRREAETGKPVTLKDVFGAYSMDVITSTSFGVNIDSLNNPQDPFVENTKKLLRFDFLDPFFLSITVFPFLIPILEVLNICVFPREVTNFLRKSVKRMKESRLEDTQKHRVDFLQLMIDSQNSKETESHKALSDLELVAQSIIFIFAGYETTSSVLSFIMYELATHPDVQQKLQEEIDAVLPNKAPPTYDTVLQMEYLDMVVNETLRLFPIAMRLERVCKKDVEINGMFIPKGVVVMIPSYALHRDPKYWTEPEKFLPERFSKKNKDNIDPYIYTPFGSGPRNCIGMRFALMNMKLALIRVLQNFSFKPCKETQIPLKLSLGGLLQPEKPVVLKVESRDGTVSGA

CYP2C9 = CYP2C9 (Homo sapiens, UniProt P11712); test: Inhibition of CYP2C9 (unknown origin) at 10 uM; assay type: ADME
Sequence of CYP2C9 (P11712 whole entry): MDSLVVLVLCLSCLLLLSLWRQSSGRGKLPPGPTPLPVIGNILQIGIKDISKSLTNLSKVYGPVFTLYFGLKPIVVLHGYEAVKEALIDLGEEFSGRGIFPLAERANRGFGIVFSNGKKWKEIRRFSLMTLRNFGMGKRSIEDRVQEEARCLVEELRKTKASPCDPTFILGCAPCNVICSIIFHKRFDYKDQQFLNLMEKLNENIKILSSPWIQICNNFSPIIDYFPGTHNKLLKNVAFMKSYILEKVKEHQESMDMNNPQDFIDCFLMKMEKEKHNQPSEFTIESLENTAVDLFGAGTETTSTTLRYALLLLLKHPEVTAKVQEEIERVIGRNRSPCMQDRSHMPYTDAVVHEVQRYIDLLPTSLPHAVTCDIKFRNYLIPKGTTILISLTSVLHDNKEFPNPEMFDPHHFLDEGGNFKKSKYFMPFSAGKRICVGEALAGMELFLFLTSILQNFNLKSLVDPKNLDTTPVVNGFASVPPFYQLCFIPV

CYP2D6 = CYP2D6 (Homo sapiens, UniProt P10635); test: Inhibition of CYP2D6 (unknown origin) at 10 uM; assay type: ADME
Sequence of CYP2D6 (P10635 whole entry): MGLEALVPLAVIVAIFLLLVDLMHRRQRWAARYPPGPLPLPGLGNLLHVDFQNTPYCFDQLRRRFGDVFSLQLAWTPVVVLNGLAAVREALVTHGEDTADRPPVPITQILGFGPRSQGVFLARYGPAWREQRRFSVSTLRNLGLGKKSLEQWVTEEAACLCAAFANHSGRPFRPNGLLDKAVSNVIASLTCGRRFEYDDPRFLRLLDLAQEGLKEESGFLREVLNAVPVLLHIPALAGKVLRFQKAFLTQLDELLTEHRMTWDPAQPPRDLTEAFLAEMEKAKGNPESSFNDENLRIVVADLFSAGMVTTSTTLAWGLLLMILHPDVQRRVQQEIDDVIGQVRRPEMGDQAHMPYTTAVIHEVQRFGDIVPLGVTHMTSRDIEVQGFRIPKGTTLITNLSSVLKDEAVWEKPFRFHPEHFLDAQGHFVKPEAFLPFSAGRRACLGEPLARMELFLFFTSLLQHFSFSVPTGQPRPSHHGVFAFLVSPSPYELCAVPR

[32] = target: T3, Nuclear receptor subfamily 1 group I member 2 (Homo sapiens, UniProt O75469); test: Activation of PXR (unknown origin); assay type: ADME
T3 sequence (O75469 whole entry): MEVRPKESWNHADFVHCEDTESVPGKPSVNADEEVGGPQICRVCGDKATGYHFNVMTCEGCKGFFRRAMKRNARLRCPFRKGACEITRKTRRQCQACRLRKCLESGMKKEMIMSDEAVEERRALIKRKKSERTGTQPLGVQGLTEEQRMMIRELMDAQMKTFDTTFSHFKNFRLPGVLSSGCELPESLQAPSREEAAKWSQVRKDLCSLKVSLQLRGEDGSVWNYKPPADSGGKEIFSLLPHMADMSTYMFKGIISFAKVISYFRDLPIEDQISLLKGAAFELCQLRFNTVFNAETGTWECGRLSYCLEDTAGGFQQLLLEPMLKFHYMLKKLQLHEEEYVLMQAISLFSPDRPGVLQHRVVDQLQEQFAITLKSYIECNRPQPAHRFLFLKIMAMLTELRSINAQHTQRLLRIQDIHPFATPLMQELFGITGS

CYP3A4 [33] = target: T2, CYP3A4; test: Time dependent inhibition of CYP3A4 (unknown origin) at 50 uM; assay type: ADME
[34] = Solubility of the compound at pH 7; assay type: physicochemical; conditions: buffer
[35] = Solubility of the compound at pH 2; assay type: physicochemical; conditions: buffer
[36] = Lipophilicity, log D of the compound; assay type: physicochemical; conditions: octanol/water
[37] = Fraction unbound in rat; assay type: ADME, organism-based; conditions: in vivo
[38] = Fraction unbound in dog; assay type: ADME, organism-based, Canis lupus familiaris; conditions: in vivo
[39] = Fraction unbound in rhesus monkey; assay type: ADME, organism-based, Macaca mulatta; conditions: in vivo
[40] = Fraction unbound in human; assay type: ADME, organism-based; conditions: in vivo
[41] = Half life in rat liver microsomes; assay type: ADME

inhibition [1]: inactive | IC50 [3]: 41.8 µM | IC50 (Gamma-secretase [4]): 0.94 µM | IC50 (Gamma-secretase [5]): 0.15 µM
Compound: COc1cc(-c2cn(C3CCc4ncccc4N(CC(F)(F)F)C3=O)nn2)ccc1-n1cnc(C)c1 (stereo unspecified)
Activity (Mus musculus): Active | Activity (Rattus norvegicus [2]): Active | IC50 [6]: > 50 µM

IC50 [3]: > 50 µM | IC50 (Gamma-secretase [4]): 6.38 µM | IC50 (Gamma-secretase [5]): 0.58 µM
Compound: COc1cc(-c2cn(C3(C)CCc4ccccc4N(CC(F)(F)F)C3=O)nn2)ccc1-n1cnc(C)c1 (stereo unspecified)
Activity (Mus musculus): Active | Activity (Rattus norvegicus [2]): Active | IC50 [6]: 6 µM

half-life [41]: 1.2 h | IC50 [3]: 36.6 µM | IC50 (Gamma-secretase [4]): 0.17 µM | IC50 (Gamma-secretase [5]): 0.04 µM
Compound: COc1cc(-c2cn([C@H]3C[C@H](C)c4ccccc4N(CC(F)(F)F)C3=O)nn2)ccc1-n1cnc(C)c1
Activity (Mus musculus): Active | Activity (Rattus norvegicus [2]): Active | IC50 [6]: 6.68 µM

IC50 [3]: > 50 µM | IC50 (Gamma-secretase [4]): 3.08 µM | IC50 (Gamma-secretase [5]): 0.43 µM
Compound: COc1cc(-c2cn(C3CCc4ccccc4N(C)C3=O)nn2)ccc1-n1cnc(C)c1 (stereo unspecified)

Second part, the compound before the results:

Compound: COc1cc(-c2cn(C3CCc4c(F)cccc4N(CC(F)(F)F)C3=O)nn2)ccc1-n1cnc(C)c1 (stereo unspecified) [GSM1]
half-life [7]: 0.6 h | half-life [8]: 1.12 h | half-life [9]: 0.817 h | half-life [10]: 1.02 h | Papp [11]: 25 ×10⁻⁶ cm/s | AUC/dose (Rattus norvegicus [12]): 8.8 µM·kg·h/mg | clearance [13]: 38 mL/min/kg | Vd [14]: 4.8 L/kg | half-life [15]: 0.8 h | F (Rattus norvegicus [16]): 190% | AUCt/dose (Rattus norvegicus [17]): 1.6 µM·kg·h/mg | clearance [18]: 82 mL/min/kg | Vd [19]: 14 L/kg | half-life [20]: 6.2 h | bioavailability [21]: < 5% | AUCt/dose (Canis familiaris): 0.1 µM·kg·h/mg | Vd [22]: 2 L/kg | half-life [23]: 1.2 h | bioavailability [24]: < 5% | Activity (Rhesus monkey [25]): Active | Activity (Rhesus monkey [26]): inactive | IC50 [1]: 0.032 µM | AUC (Plasma): 183 µM·h | AUC at 4 h [27]: 2.2 µM·h | IC50 [28]: 12.9 µM | inhibition in vivo at 100 mg/kg (Rattus norvegicus [29]): 92% | concentration at 6 h [30]: 35 µM | ED50 (Mus musculus): 15 mg/kg | ED50 (Rattus norvegicus [2]): 15 mg/kg | IC50 [3]: 39.8 µM | inhibition at 10 µM (CYP3A4 [31]): 42% | inhibition at 10 µM (CYP2C9): 68% | inhibition at 10 µM (CYP2D6): 28% | EC50 [32]: > 30 µM | inhibition at 50 µM (CYP3A4 [33]): 18% | solubility [34]: 5.6 µM (≈ 2.88 µg/mL) | solubility [35]: 180 µM (≈ 92.6 µg/mL) | logD [36]: 3.3 | fraction unbound [37]: 0.037 | fraction unbound [38]: 0.058 | fraction unbound [39]: 0.057 | fraction unbound [40]: 0.036 | IC50 [6]: 2.61 µM

Compound: COc1cc(-c2cn(C3CCc4c(ccc5ccccc45)N(CC(F)(F)F)C3=O)nn2)ccc1-n1cnc(C)c1 (stereo unspecified)
Activity (Mus musculus): Active | Activity (Rattus norvegicus [2]): Active | IC50 [3]: > 50 µM | IC50 (Gamma-secretase [4]): 0.07 µM | IC50 (Gamma-secretase [5]): 0.03 µM

Compound: COc1cc(-c2cn(C3CCc4ccccc4N(CC4CC4)C3=O)nn2)ccc1-n1cnc(C)c1 (stereo unspecified)
IC50 [3]: 25.6 µM | IC50 (Gamma-secretase [4]): 3.98 µM | IC50 (Gamma-secretase [5]): 0.37 µM

Compound: COc1cc(-c2cn(C3CCc4c(F)cc(F)cc4N(CC(F)(F)F)C3=O)nn2)ccc1-n1cnc(C)c1 (stereo unspecified)
Activity (Mus musculus): Active | Activity (Rattus norvegicus [2]): Active | IC50 [3]: > 50 µM | IC50 (Gamma-secretase [4]): 0.15 µM | IC50 (Gamma-secretase [5]): 0.04 µM

Compound: COc1cc(-c2cn(C3CCc4ccccc4N(CC(F)F)C3=O)nn2)ccc1-n1cnc(C)c1 (stereo unspecified)
IC50 [3]: > 50 µM | IC50 (Gamma-secretase [4]): 0.7 µM | IC50 (Gamma-secretase [5]): 0.15 µM

Compound: COc1cc(-c2cn(C3CSc4ccccc4N(CC(F)(F)F)C3=O)nn2)ccc1-n1cnc(C)c1 (stereo unspecified)
Activity (Mus musculus): Active | Activity (Rattus norvegicus [2]): Active | IC50 [3]: 28.4 µM | IC50 (Gamma-secretase [4]): 0.24 µM | IC50 (Gamma-secretase [5]): 0.06 µM | IC50 [6]: 4.75 µM

Compound: COc1cc(-c2cn(C3CCc4ccccc4NC3=O)nn2)ccc1-n1cnc(C)c1 (stereo unspecified)
IC50 [3]: 33 µM | IC50 (Gamma-secretase [4]): 4.72 µM | IC50 (Gamma-secretase [5]): 0.39 µM
